Test results taken from a melting point compilation (Tetko et al.; mined from patent text by program, amines drawn as free bases though some values may be those of a salt).

Q: With `Cc1c(C)c2c(c(C)c1O)CC[C@@](C)(CO)O2` as the compound, how does the melting point read?
A: 124 to 128 °C

Q: Which melting point does the source give for `COc1ccc(C=C(C#N)C#N)cc1OC` here?
A: 108 °C

Q: Which melting point does the source give for `N#Cc1cc(C(=O)NNC(=O)c2occc2-c2ccccc2-c2ccccc2)ccc1O` here?
A: 159 to 162 °C

Q: For `Nc1nc2[nH]c(CCCCc3ccc(C(=O)N[C@@H](CCC(=O)O)C(=O)O)o3)cc2c(=O)[nH]1`, which melting point is on record?
A: 174 to 175 °C

Q: With `Cc1c(-c2ccc(Cl)cc2)n(Cc2ccc(OCCN3CCCCC3)cc2)c2ccc(O)cc12` as the compound, how does the melting point read?
A: 161 to 164 °C

Q: With `O=C(O)C(Oc1ccc(F)c(C(F)(F)F)c1)c1ccc(Cl)cc1` (configuration not stated) as the compound, how does the melting point read?
A: 106 °C

Q: Which melting point does the source give for `CCCCCCCCc1ccc(CCC2(NC(=O)OC(C)(C)C)COC(C)(C)OC2)cc1` here?
A: 120 to 124 °C

Q: For `COCOc1ccc(-c2cc(S(C)=O)nn2-c2ccc(OC)cc2)cc1` (configuration not stated), which melting point is on record?
A: 137 °C

Q: With `Cc1c(C)c2c(c(C)c1C=O)CC(C)(C)C2` as the compound, how does the melting point read?
A: 61 to 62 °C

Q: For `O=C1C2=C(CCCC2)C(=O)N1c1cc(OC2CCCC2)c(Cl)cc1F`, which melting point is on record?
A: 69 to 75.2 °C

Q: With `CCOC(=O)C(C#N)C1(C#N)C(=O)N(Cc2ccc(C)cc2)c2c(C)cccc21` (configuration not stated) as the compound, how does the melting point read?
A: 128 to 130 °C

Q: Which melting point does the source give for `COc1cc(C=Cc2conc2C)cc(Br)c1O` here?
A: 178 to 180 °C

Q: With `CO[C@@H]1[C@@H](OC)[C@H](C)O[C@@H](ON(Cc2ccc(-c3ncn(-c4ccc(OC(F)(F)F)cc4)n3)cc2)C(=O)CCC(=O)O)[C@@H]1OC` as the compound, how does the melting point read?
A: 61 to 75 °C

Q: For `Oc1cc(Cl)c(OCc2ccc(F)c(Oc3ccccc3)c2)c(Cl)c1`, which melting point is on record?
A: 145 °C

Q: For `COc1cc2c(cc1OCc1ccccc1)CCN(C(C)=O)C2`, which melting point is on record?
A: 125 to 126 °C

Q: For `CCCOc1ncc(I)cc1-c1nc2c(CC)nn(CCN3CCOCC3)c2c(=O)[nH]1`, which melting point is on record?
A: 175 to 177 °C

Q: Which melting point does the source give for `CCn1nc2c(N)nc3ccccc3c2c1CCCCNS(C)(=O)=O` here?
A: 192 to 194 °C

Q: With `O=C1c2ccccc2C(=O)N1CC(=O)N1c2ccccc2N(Cc2cccnc2)C(=O)[C@H]2CCC[C@H]21` (relative stereo) as the compound, how does the melting point read?
A: 220 to 223 °C

Q: With `COc1cc(N(C)C)ccc1-c1nc2c(N[C@H]3[C@@H](C(N)=O)[C@@H]4C=C[C@H]3C4)ccnc2[nH]1` as the compound, how does the melting point read?
A: 185 to 190 °C

Q: With `COc1ccc(N2CCCN(/C(C)=C(/C#N)C(N)=S)CC2)cc1` as the compound, how does the melting point read?
A: 157 to 158 °C

Q: For `N#CCCNC(=O)c1cccc(-c2ccc3c(c2)C(Oc2cccc(C(F)(F)F)c2)CC3)c1` (configuration not stated), which melting point is on record?
A: 120 to 121 °C

Q: For `COC(=O)COc1ccc(OCC(=O)OC)cc1`, which melting point is on record?
A: 96 to 98 °C

Q: With `O=C(Oc1ccc(N2c3ccccc3S(=O)(=O)c3ccccc32)cc1)c1ccccc1` as the compound, how does the melting point read?
A: 233 to 235 °C

Q: With `Cc1cc(Cl)cc2[nH]c(=O)c(=O)[nH]c12` as the compound, how does the melting point read?
A: > 250 °C

Q: Which melting point does the source give for `O=CC(Br)c1ccc(Cl)cc1` (configuration not stated) here?
A: 178 °C

Q: For `C=C(C)C(=O)Nc1cccc(C(=O)NC2=NN(c3c(Cl)cc(Cl)cc3Cl)C(=O)C2c2cc[nH]n2)c1` (configuration not stated), which melting point is on record?
A: 227 to 230 °C

Q: For `NCC(=O)N1CCC(C2c3ncc(Br)cc3CCc3cc(Cl)cc(Cl)c32)CC1` (single isomer, unassigned; (+)), which melting point is on record?
A: 81 to 122 °C

Q: For `CCOC(=O)CN1CCN(C2=Nc3ccccc3Cc3ccccc32)CC1`, which melting point is on record?
A: 107 to 108 °C

Q: Which melting point does the source give for `CCOc1ccc(OCC(=O)OC(C)(C)C)c2c1C(=O)N(CCl)S2(=O)=O` here?
A: 117 to 119 °C

Q: Which melting point does the source give for `c1ccc2c(c1)N(CC1CCCCC1)CC21COc2cc3c(cc21)OCO3` (configuration not stated) here?
A: 153 to 154 °C

Q: Which melting point does the source give for `O=c1ccn(-c2ccc(OC(F)F)cc2)nc1-c1ccnn1-c1ccccc1` here?
A: 175 to 176 °C

Q: With `Oc1ccc(Oc2ncc(Cl)cc2Cl)cc1` as the compound, how does the melting point read?
A: 122 to 124 °C

Q: For `CON=C(C)c1c(C)sc(C)c1CS(=O)(=O)C1=NOC(C)(C)C1`, which melting point is on record?
A: 95 to 96 °C

Q: With `CCCCc1nc2c(N)nc(C)c(C)c2n1CCCCCS(N)(=O)=O` as the compound, how does the melting point read?
A: 130 °C

Q: For `CC1CNc2c3c(nc4cccc(c24)O1)CCCC3` (configuration not stated), which melting point is on record?
A: 169 to 170 °C

Q: With `CC(=O)N1[C@@H](C)[C@@H]2C(=O)N(Cc3ccccc3)C(=O)[C@@H]2[C@@H]1c1ccc(C#N)cc1` (racemic) as the compound, how does the melting point read?
A: 107 to 109 °C

Q: Which melting point does the source give for `CCCc1c(SCCCSc2ccc(-c3nnn[nH]3)cc2)ccc(C(C)=O)c1O` here?
A: 160 to 162 °C
